From ChEMBL document CHEMBL4627246, “Pyroglutamide-Based P2X7 Receptor Antagonists Targeting Inflammatory Bowel Disease” (J Med Chem, 2020)

What was measured:
Assay type in all cases: cell-based
[1] = test system: SR; test: Cytotoxicity against human SR cells assessed as effect on cell growth at 10 uM incubated for 48 hrs by sulforhodamine B assay
[2] = test system: EKVX; test: Cytotoxicity against human EKVX cells assessed as effect on cell growth at 10 uM incubated for 48 hrs by sulforhodamine B assay
[3] = test system: K562; test: Cytotoxicity against human K562 cells assessed as effect on cell growth at 10 uM incubated for 48 hrs by sulforhodamine B assay; settings: k562, 48 h
[4] = test system: NCI-H322M; test: Cytotoxicity against human NCI-H322M cells assessed as effect on cell growth at 10 uM incubated for 48 hrs by sulforhodamine B assay
[5] = test system: COLO 205; test: Cytotoxicity against human COLO205 cells assessed as effect on cell growth at 10 uM incubated for 48 hrs by sulforhodamine B assay; settings: colo 205, 48 h
[6] = test system: HCC 2998; test: Cytotoxicity against human HCC2998 cells assessed as effect on cell growth at 10 uM incubated for 48 hrs by sulforhodamine B assay; settings: hcc 2998, 48 h
[7] = test system: HCT-116; test: Cytotoxicity against human HCT116 cells assessed as effect on cell growth at 10 uM incubated for 48 hrs by sulforhodamine B assay; settings: hct-116, 48 h
[8] = test system: KM12; test: Cytotoxicity against human KM12 cells assessed as effect on cell growth at 10 uM incubated for 48 hrs by sulforhodamine B assay; settings: km12, 48 h
[9] = test system: SF-295; test: Cytotoxicity against human SF295 cells assessed as effect on cell growth at 10 uM incubated for 48 hrs by sulforhodamine B assay; settings: sf-295, 48 h
[10] = test system: SNB-75; test: Cytotoxicity against human SNB75 cells assessed as effect on cell growth at 10 uM incubated for 48 hrs by sulforhodamine B assay; settings: snb-75, 48 h
[11] = test system: Malme-3M; test: Cytotoxicity against human MALME-3M cells assessed as effect on cell growth at 10 uM incubated for 48 hrs by sulforhodamine B assay
[12] = test system: SK-MEL-5; test: Cytotoxicity against human SK-MEL-5 cells assessed as effect on cell growth at 10 uM incubated for 48 hrs by sulforhodamine B assay; settings: sk-mel-5, 48 h
[13] = test system: UACC-257; test: Cytotoxicity against human UACC257 cells assessed as effect on cell growth at 10 uM incubated for 48 hrs by sulforhodamine B assay; settings: uacc-257, 48 h
[14] = test system: OVCAR-4; test: Cytotoxicity against human OVCAR4 cells assessed as effect on cell growth at 10 uM incubated for 48 hrs by sulforhodamine B assay; settings: ovcar-4, 48 h
[15] = test system: OVCAR-8; test: Cytotoxicity against human OVCAR8 cells assessed as effect on cell growth at 10 uM incubated for 48 hrs by sulforhodamine B assay; settings: ovcar-8, 48 h
[16] = test system: NCI/ADR-RES; test: Cytotoxicity against human NCI/ADR-RES cells assessed as effect on cell growth at 10 uM incubated for 48 hrs by sulforhodamine B assay
[17] = test system: 786-0; test: Cytotoxicity against human 786-0 cells assessed as effect on cell growth at 10 uM incubated for 48 hrs by sulforhodamine B assay; settings: 786-0, 48 h
[18] = test system: A498; test: Cytotoxicity against human A498 cells assessed as effect on cell growth at 10 uM incubated for 48 hrs by sulforhodamine B assay; settings: a498, 48 h
[19] = test system: DU-145; test: Cytotoxicity against human DU145 cells assessed as effect on cell growth at 10 uM incubated for 48 hrs by sulforhodamine B assay; settings: du-145, 48 h
[20] = test system: MDA-MB-468; test: Cytotoxicity against human MDA-MB-468 cells assessed as effect on cell growth at 10 uM incubated for 48 hrs by sulforhodamine B assay; settings: mda-mb-468, 48 h

Measured: Activity

COc1ccc(CNC(=O)[C@@H]2CCC(=O)N2Cc2ccc(Cl)cc2Cl)c(OC)c1
Non-Toxic: all assays above

C[n+]1ccccc1C(=O)NCc1ccc(Cl)cc1Cl.[I-]
Non-Toxic: all assays above

O=C(NCc1ccccc1Cl)[C@@H]1CCC(=O)N1Cc1ccc(Cl)cc1
Non-Toxic: all assays above

O=C(NCc1ccc(Cl)cc1Cl)[C@@H]1CCC(=O)N1C(c1ccc(Cl)cc1)c1ccc(Cl)cc1
Non-Toxic: all assays above

COC(=O)[C@@H]1C/C(=C\NCc2ccc(Cl)cc2Cl)C(=O)N1C(=O)OC
Non-Toxic: all assays above

O=C(NCc1ccccc1Cl)[C@@H]1CCC(=O)N1Cc1ccccc1Cl
Non-Toxic: all assays above

CN1C(=O)CC[C@H]1C(=O)NCc1cc(C(F)(F)F)ccc1Cl
Non-Toxic: all assays above

COc1ccc(CN2C(=O)[C@@H]3C/C(=C\N(C)C)C(=O)N3C2N(C)C)c(OC)c1 (stereo not given in full)
Non-Toxic: all assays above

CN(C)/C=C1\C[C@@H](C(=O)NCc2ccc(Cl)cc2Cl)N(c2cccs2)C1=O
Non-Toxic: all assays above

O=C(NCc1ccc(Cl)cc1Cl)[C@@H]1COC(=O)N1c1cccs1
Non-Toxic: all assays above

O=C(NCc1ccc(Cl)cc1Cl)[C@@H]1CCC(=O)N1c1ccsc1
Non-Toxic: all assays above

O=C(NCc1ccc(Cl)cc1Cl)[C@@H]1CCC(=O)N1c1nccs1
Non-Toxic: all assays above

COc1cc(CN/C=C2\C[C@@H](C(=O)NCc3ccc(Cl)cc3Cl)NC2=O)cc(OC)c1OC
Non-Toxic: all assays above

O=C(NCc1ccccc1)[C@@H]1CCC(=O)N1Cc1ccc(Cl)cc1Cl
Non-Toxic: all assays above
